Source: US20240279205A1, “NOVEL BENZIMIDAZOLE DERIVATIVE” (Carna Biosciences, Inc., priority 2020, published 2024)

Biological target: T1, human STING (hSTING) (Homo sapiens, UniProt Q86WV6)
T1 construct: host or cells: HEK-Blue ISG cells (HEK293-derived SEAP reporter line)
Experiment: Inhibition test of intracellular human STING (hSTING) pathway using SEAP reporter cells (HEK-Blue ISG), stimulation with Compound 3
Type: cell-based
Design: hSTING inhibitory activity: scale not given here
Settings: Compound 3 10 nM stimulation, 21 hours
Method: Inhibition test of intracellular human STING (hSTING) pathway using reporter cells
Since STING activates the transcription factor IRF3 upon ligand stimulation, the activity of STING can be evaluated by a reporter assay using a secretory alkaline phosphatase (SEAP reporter) integrated downstream of an IRF-inducible promoter.
That is, the hSTING inhibitory activity of the test compound was evaluated using HEK-Blue™MISG cells (manufactured by Invivogen, #hkb-isg-1) incorporating a SEAP reporter. Activation of hSTING was performed by stimulation with the small molecule ligand Compound 3 as described in the literature (Ramanjulu, J. M., et al., Nature. 2018, 564 (7736), 439-443). HEK-Blue™MISG cells were seeded in a 96-well plate and cultured overnight at 37° C. in a 5% CO2 incubator. To each well of this cell culture plate, a test compound solution adjusted to a final concentration of 0.1 to 10 µM of the test compound was added, cultured for 1 hour in a CO2 incubator, and then Compound 3 (final concentration 10 nM) was added and further cultured in a CO2 incubator for 21 hours. After collecting the culture supernatant of each well, the reporter activity was measured by color development reaction with alkaline phosphatase.
The reporter activity of the test compound non-addition and Compound 3 addition group was set to 100%, and the reporter activity of the test compound non-addition and Compound 3 non-addition group was set to 0%. The IC50 value was determined by regression analysis of the inhibitory rate determined from the reporter activity at each compound concentration and the test compound concentration (logarithm).

T1 sequence (Q86WV6 whole entry H232R): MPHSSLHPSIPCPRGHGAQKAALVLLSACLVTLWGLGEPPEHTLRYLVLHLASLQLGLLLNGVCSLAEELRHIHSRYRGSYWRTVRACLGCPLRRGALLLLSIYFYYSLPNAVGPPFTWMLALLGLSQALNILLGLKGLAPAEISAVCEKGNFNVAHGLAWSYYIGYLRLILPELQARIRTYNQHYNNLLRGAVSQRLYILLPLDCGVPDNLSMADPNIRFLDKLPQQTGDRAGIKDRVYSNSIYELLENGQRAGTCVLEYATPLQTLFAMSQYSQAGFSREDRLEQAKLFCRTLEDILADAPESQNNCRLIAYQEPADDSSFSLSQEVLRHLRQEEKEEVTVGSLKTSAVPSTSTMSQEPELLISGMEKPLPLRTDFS

Compound	hSTING inhibitory activity
COC(=O)c1ccc2[nH]c(Nc3c[nH]c4ccc(Br)nc34)nc2c1 [Embodiment 34, methyl 2-[(5-bromo-1H-pyrrolo[3,2-b]pyridin-3-yl)amino]-1H-benzo[d]imidazole-5-carboxylate]	* *
Cn1c(Nc2c[nH]c3ccc(Br)cc23)nc2ccc(Oc3ccccc3)cc21 [Embodiment 39, N-(5-bromo-1H-indol-3-yl)-1-methyl-6-phenoxy-1H-benzo[d]imidazol-2-amine]	* *
c1ccc(Oc2ccc3[nH]c(Nc4c[nH]c5cc(-c6ccccc6)cnc45)nc3c2)cc1 [Embodiment 51, 5-phenoxy-N-(6-phenyl-1H-pyrrolo[3,2-b]pyridin-3-yl)-1H-benzo[d]imidazol-2-amine]	* *
FC(F)(F)c1ccc2[nH]cc(Nc3nc4cc(Oc5ccccc5)ccc4[nH]3)c2n1 [Embodiment 55, 5-phenoxy-N-[5-(trifluoromethyl)-1H-pyrrolo[3,2-b]pyridin-3-yl]-1H-benzo[d]imidazol-2-amine]	* *
Brc1ccc2[nH]cc(Nc3nc4c(-c5ccccc5)cccc4[nH]3)c2n1 [Embodiment 62, N-(5-bromo-1H-pyrrolo[3,2-b]pyridin-3-yl)-4-phenyl-1H-benzo [d]imidazol-2-amine]	* *
Cn1nccc1Oc1ccc2[nH]c(Nc3c[nH]c4ccc(Br)nc34)nc2c1 [Embodiment 63, N-(5-bromo-1H-pyrrolo[3,2-b]pyridin-3-yl)-5-[(1-methyl-1H-pyrazol-5-yl)oxy]-1H-benzo[d] imidazol-2-amine]	* *

Other lines, results leading:

hSTING inhibitory activity	Compound
* * *	Cn1c(Nc2c[nH]c3ccc(Br)nc23)nc2ccc(Oc3ccccc3)cc21 [Embodiment 40, N-(5-bromo-1H-pyrrolo[3,2-b]pyridin-3-yl)-1-methyl-6-phenoxy-1H-benzo[d]imidazol-2-amine]
* * *	Cn1c(Nc2c[nH]c3ccc(Br)nc23)nc2cc(Oc3ccccc3)ccc21 [Embodiment 41, N-(5-bromo-1H-pyrrolo[3,2-b]pyridin-3-yl)-1-methyl-5-phenoxy-1H-benzo[d]imidazol-2-amine]
* * *	Cn1c(Nc2c[nH]c3ccc(Br)nc23)nc2cc(C(F)(F)F)ccc21 [Embodiment 43, N-(5-bromo-1H-pyrrolo[3,2-b]pyridin-3-yl)-1-methyl-5-(trifluoromethyl)-1H-benzo[d]imidazol-2-amine]

Same assay, conditions: Compound 3 10 nM stimulation, 21 hours, read-out: hSTING inhibitory activity

Compound	IC50
O=C(O)c1ccc2[nH]c(Nc3c[nH]c4ccc(Br)nc34)nc2c1 [Embodiment 37, 2-[(5-bromo-1H-pyrrolo[3,2-b]pyridin-3-yl)amino]-1H-benzo[d]imidazole-5-carboxylic acid]	≥ 10 µM
C1=C(c2ccc3[nH]cc(Nc4nc5cc(Oc6ccccc6)ccc5[nH]4)c3n2)CCCC1 [Embodiment 48, N-[5-(Cyclohex-1-en-1-yl)-1H-pyrrolo[3,2-b]pyridin-3-yl]-5-phenoxy-1H-benzo[d]imidazol-2-a mine]	1 to 10 µM
Brc1cnc2c(Nc3nc4cc(Oc5ccccc5)ccc4[nH]3)c[nH]c2c1 [Embodiment 49, N-(6-bromo-1H-pyrrolo[3,2-b]pyridin-3-yl)-5-phenoxy-1H-benzo[d]imidazol-2-amine]	1 to 10 µM
COc1cccc2[nH]c(Nc3c[nH]c4ccc(Br)nc34)nc12 [Embodiment 61, N-(5-bromo-1H-pyrrolo[3,2-b]pyridin-3-yl)-4-methoxy-1H-benzo[d]imidazol-2-amine]	1 to 10 µM

The next lines start with the values.

IC50	Compound
≥ 10 µM	Cn1c(Nc2c[nH]c3ccc(Br)nc23)nc2ccc(C(F)(F)F)cc21 [Embodiment 42, N-(5-bromo-1H-pyrrolo[3,2-b]pyridin-3-yl)-1-methyl-6-(trifluoromethyl)-1H-benzo[d]imidazol-2-amine]
≥ 10 µM	Cn1c(Nc2c[nH]c3ccc(Cl)nc23)nc2ccc(C(F)(F)F)cc21 [Embodiment 46, N-(5-Chloro-1H-pyrrolo[3,2-b]pyridin-3-yl)-1-methyl-6-(trifluoromethyl)-1H-benzo[d] imidazol-2-amine]
